Test results taken from US20240410898A1, “METHOD FOR DETECTING PROTEIN HAVING CHANGES IN ENERGY STATE, OR AFFINITY OF LIGAND TO PROTEIN” (DALIAN INSTITUTE OF CHEMICAL PHYSICS, CHINESE ACADEMY OF …, priority 2022, published 2024).
Values belong to the compound of their own block, whether it stands above or below them.

Key:
[1] = test system: proteins of Escherichia coli; conditions: Piazza I et al., Cell, 2018; cited from earlier work
[2] = test system: metal ion-binding proteins in HeLa cell lysate; assay: PELSA, zinc chloride-treated HeLa cell lysate; conditions: 30 μM zinc chloride
Procedure: After cell lysis following the procedure described in Example 1, the added EDTA was removed using Zeba Spin desalting columns (Thermo Fisher Scientific) through two rounds of protein desalting. A final concentration of 30 μM zinc chloride (Sigma, catalog number 450111-10G) was added to the 50 μL cell lysate, serving as the experimental group. Proteins meeting the criteria of −log 10Pvalue>3 and log 2FC<−0.5 were considered as proteins stabilized by Zn2+.

[3] = test system: metal ion-binding proteins in HeLa cell lysate; assay: PELSA, zinc chloride-treated HeLa cell lysate; conditions: −log 10Pvalue>6 and log 2FC>0
[4] = test system: MAT2A and AKR1C2; assay: dimethyl labeling-based PELSA, MAT2A and AKR1C2; type: binding; conditions: 100 μM
[5] = target: T1, MAT2A (Homo sapiens, UniProt P31153); assay: thermal shift assay with purified MAT2A; type: binding; conditions: purified protein
T1 construct: made in house
Source text: (§1) HSP90 proteins consist of three domains: the N-terminal ATP-binding domain, the middle domain, and the C-terminal domain. […] This finding further supports the capability of PELSA to accurately identify protein regions with changes in energy state. In addition to known target proteins, PELSA also identified several off-target proteins. […] PRDX family proteins play a protective role by clearing ROS under oxidative stress conditions.

[6] = target: T2, AKR1C2 (Homo sapiens, UniProt P52895); assay: thermal shift assay with purified AKR1C2; type: binding; conditions: purified protein
T2 construct: made in house
T2 sequence (P52895 1-323): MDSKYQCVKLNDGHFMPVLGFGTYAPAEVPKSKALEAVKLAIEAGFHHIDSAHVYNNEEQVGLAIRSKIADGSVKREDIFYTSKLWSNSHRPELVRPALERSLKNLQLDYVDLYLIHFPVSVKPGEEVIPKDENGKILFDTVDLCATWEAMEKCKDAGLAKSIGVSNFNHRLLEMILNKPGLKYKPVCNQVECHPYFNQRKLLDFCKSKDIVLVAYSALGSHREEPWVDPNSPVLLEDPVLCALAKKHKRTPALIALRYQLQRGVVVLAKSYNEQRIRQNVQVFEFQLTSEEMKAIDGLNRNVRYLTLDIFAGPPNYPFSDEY
Source text: as §1

[7] = target: PTPN11 (Homo sapiens, UniProt Q06124); assay: PELSA compared with LiP-MS, SHP099-treated HeLa cell lysate; type: binding
[8] = target: T3, ERBB2 (Homo sapiens, UniProt P04626); assay: PELSA, lapatinib-treated BT474 cell lysate; type: binding
[9] = test system: CHEK2, SLK, RIPK2, and YES1; assay: PELSA, lapatinib-treated BT474 cell lysate, off-target kinases; type: binding; conditions: increased lapatinib concentration (1 μM and above)
[10] = target: T3, ERBB2; conditions: cited from earlier work
[11] = target: T4, PTGES2 (Homo sapiens, UniProt Q9H7Z7); assay: PELSA, lapatinib-treated BT474 cell lysate, non-kinase off-target; conditions: high concentrations of lapatinib
Procedure: (1) Take a dish of BT474 cells (approximately 5e7 cells) and resuspend them in 1 mL lysis buffer (PBS supplemented with 1% (v/v) protease inhibitor (Sigma, catalog number P8340-5 mL)). Freeze-thaw the mixture three times (freeze in liquid nitrogen for two minutes, thaw in a 37° C. water bath for two minutes, repeat three times) to obtain crude cell lysates. Centrifuge the crude cell lysates at 500 g, 4° C. for 10 minutes, and collect the supernatant as the cell lysate. Determine the protein concentration using the Pierce™ 660 nm Protein Assay (Thermo, USA).
(2) Adjust the protein concentration of the cell lysate to 1 mg/mL using cell lysis buffer. […]
(6) The above-mentioned peptide mixture was reconstituted in 20 μL of 0.1% (v/v) formic acid (Sigma, Catalog No. V900803) and subjected to LC-MS/MS analysis. Each sample was analyzed once using data-independent acquisition (DIA) mass spectrometry. The Spectronaut software was used to identify and quantify the peptides, providing information on the corresponding protein, the peptide's location within the protein, and its abundance in each sample.
(7) The abundance of peptides in the lapatinib-treated and untreated groups was statistically evaluated using Empirical Bayes t-test to determine the P-value and fold change for each peptide, representing the significance and magnitude of the peptide's abundance change upon lapatinib treatment. […]

[12] = target: T4, PTGES2; assay: Western blotting of undigested PTGES2 after trypsin digestion; type: binding; set-up: collect the supernatant as the cell lysate; endogenous in cells; host or cells: BT474 cell lysate
Procedure: To validate the binding of PTGES2 and lapatinib, we performed Western blotting using a similar procedure and conditions as mentioned above, with the following modifications: The lysis buffer is PBS. After lysis, the resulting cell lysates were divided into 8 portions and treated with equal volumes of lapatinib at different final concentrations (lapatinib dissolved in DMSO), as well as DMSO, resulting in final lapatinib concentrations of 100 μM, 50 μM, 10 μM, 1 μM, 0.1 μM, 0.01 μM, 0.001 μM, and 0. The mixtures were incubated at room temperature (25° C.) for 30 minutes. After incubation, trypsin was added at a 1:40 protease-to-protein weight ratio, and the mixture was subjected to digestion at 37° C. for 1 minute. The digestion was terminated by heating the samples to 95° C., followed by the addition of ¼ volume of 5*loading buffer, and heating at 95° C. for another 5 minutes. Western blotting was employed to detect the undigested proteins. The gel was concentrated at 80 V for 20 minutes, and then separated at 120 V for 60 minutes. Transfer blotting was conducted at a constant current of 250 mA for 40 minutes. After blocking, the primary antibody against PTGES2 (Proteintech, USA) was added at a 1:800 dilution and incubated at room temperature for 1 hour. […] The undigested protein bands were quantified based on their intensities, using GAPDH as a reference protein. […]

[13] = test system: kinases in K562 cell lysate; assay: PELSA, staurosporine-treated K562 cell lysate; type: binding; conditions: 20 μM staurosporine
Source text: (§3) We further compared the protein and peptide coverage depths of LiP-Quant, TPP, and PELSA.

[14] = test system: kinases in HeLa cell lysate; conditions: 20 μM staurosporine
Source text: as §3

[15] = test system: kinases in K562 and HeLa lysates
Source text: as §3

[16] = test system: kinases in HeLa cell lysates; conditions: kinase proportion ≥80%; cited from earlier work
[17] = test system: kinases in K562 cell lysates; conditions: cited from earlier work
[18] = test system: LARS1, LARS2, GLUD1, and SENS2; assay: PELSA, leucine-treated K562 cell lysate, known targets; type: binding; conditions: 5 mM leucine
Source text: (§2) These findings indicate the ability of PELSA to differentiate between distinct binding sites on a single protein. […] SLC1A5 is a membrane protein comprising intracellular, transmembrane, and extracellular regions. The Na-dicarboxylate_symporter domain (residues 54-483), located in the extracellular region, plays a key role in amino acid transport.

[19] = target: T5, SLC1A5 (Homo sapiens, UniProt Q15758); assay: PELSA, leucine-treated K562 cell lysate, SLC1A5; type: binding; conditions: 5 mM leucine
T5 construct: Protein-level volcano plot corresponding to 5 mM leucine-treated K562 cell lysates; endogenous in cells; host or cells: K562 cell lysate
T5 sequence (Q15758 1-541): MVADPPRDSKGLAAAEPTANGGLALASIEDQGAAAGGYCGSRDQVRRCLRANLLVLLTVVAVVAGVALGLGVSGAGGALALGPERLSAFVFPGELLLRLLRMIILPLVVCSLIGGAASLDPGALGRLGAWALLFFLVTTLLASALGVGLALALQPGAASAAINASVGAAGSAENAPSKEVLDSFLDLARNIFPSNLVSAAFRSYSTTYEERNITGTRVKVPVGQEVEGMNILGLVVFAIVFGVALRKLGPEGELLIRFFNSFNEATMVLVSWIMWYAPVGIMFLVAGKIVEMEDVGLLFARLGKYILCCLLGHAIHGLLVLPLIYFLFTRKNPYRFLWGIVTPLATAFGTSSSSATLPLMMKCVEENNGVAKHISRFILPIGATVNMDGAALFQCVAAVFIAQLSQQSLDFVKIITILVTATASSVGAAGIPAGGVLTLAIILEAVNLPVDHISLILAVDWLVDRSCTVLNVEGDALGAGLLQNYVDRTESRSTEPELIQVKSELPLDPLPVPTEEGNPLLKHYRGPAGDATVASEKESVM
Source text: as §2

[20] = test system: PPIP5K1 and PPIP5K2; assay: PELSA, leucine-treated K562 cell lysate, PPIP5K1/2; type: binding; conditions: 5 mM leucine, histidine phosphatase domains
Source text: as §2

[21] = target: LARS1 (Homo sapiens, UniProt Q9P2J5); conditions: Kim S, et al., Cell Reports, 2021; read-out: dissociation constant, leucine-LARS1; cited from earlier work
[22] = test system: proteins containing the SH2 domain; assay: pulldown experiment with Biotin-pYEEI, BT474 cell lysate; type: binding; conditions: 100 μM Biotin-pYEEI
Procedure: The pulldown experiment was conducted as follows: The cell lysate is from BT474 cells, and the cell lysis was performed as described in Example 1. […] Two additional 100 μL samples were treated with Biotin-pSEEI at a final concentration of 100 μM and Biotin-YEEI at a final concentration of 100 μM, respectively, serving as control groups. This process was repeated three times, and the samples were incubated with ligands at room temperature for 30 minutes. After incubation, 200 μL of avidin beads (Thermo, USA) were added to each group and incubated overnight at 4° C. Subsequently, the beads were washed four times with a washing buffer (1% phosphatase inhibitor, and 0.5% NP40 in PBS), followed by four washes with a cell lysis buffer (1% phosphatase inhibitor in PBS solution). The proteins were eluted by adding 100 μL of HEPES buffer (pH 8.2) containing 8M guanidine hydrochloride, and the elution step was repeated twice. The eluted proteins were alkylated by adding 10 mM TCEP and 40 mM CAA, followed by heating at 95° C. for 5 minutes. The eluted protein solution was transferred to an ultrafiltration unit and centrifuged at 14,000 g for 30 minutes to remove the buffer. The ultrafiltration membrane was washed twice with 200 μL of a 10 mM ammonium bicarbonate (NH4HCO3) buffer. […]

T3 sequence (P04626 23-1255): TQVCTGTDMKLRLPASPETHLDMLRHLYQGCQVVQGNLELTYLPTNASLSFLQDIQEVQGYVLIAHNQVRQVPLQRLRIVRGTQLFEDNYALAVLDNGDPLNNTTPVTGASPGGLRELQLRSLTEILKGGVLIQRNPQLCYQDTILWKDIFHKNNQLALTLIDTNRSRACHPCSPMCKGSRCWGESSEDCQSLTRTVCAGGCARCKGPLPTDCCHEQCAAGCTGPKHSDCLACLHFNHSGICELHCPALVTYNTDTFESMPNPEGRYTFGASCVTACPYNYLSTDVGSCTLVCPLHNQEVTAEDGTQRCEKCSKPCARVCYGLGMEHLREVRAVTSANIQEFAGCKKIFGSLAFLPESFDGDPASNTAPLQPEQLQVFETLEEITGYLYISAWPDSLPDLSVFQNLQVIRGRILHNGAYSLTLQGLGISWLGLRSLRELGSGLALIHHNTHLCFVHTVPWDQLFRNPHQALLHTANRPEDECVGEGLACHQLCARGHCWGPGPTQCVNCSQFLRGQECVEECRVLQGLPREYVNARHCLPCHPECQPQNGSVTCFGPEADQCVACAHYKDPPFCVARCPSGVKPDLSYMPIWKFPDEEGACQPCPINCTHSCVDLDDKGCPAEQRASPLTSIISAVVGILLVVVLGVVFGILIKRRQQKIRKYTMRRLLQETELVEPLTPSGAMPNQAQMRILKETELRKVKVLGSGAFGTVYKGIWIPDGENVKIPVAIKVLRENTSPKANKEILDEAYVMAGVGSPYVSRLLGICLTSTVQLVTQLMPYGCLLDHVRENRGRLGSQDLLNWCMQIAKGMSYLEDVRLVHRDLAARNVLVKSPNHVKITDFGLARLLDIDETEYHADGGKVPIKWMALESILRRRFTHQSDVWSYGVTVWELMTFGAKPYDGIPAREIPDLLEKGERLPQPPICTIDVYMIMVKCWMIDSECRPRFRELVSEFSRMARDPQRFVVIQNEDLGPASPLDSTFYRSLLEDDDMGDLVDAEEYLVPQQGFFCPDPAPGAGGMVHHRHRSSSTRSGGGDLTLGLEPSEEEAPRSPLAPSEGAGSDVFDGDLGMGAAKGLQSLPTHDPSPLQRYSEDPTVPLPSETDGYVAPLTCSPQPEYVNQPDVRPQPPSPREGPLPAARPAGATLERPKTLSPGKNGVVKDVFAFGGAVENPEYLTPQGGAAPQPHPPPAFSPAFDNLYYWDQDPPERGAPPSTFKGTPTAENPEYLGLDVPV
T4 sequence (Q9H7Z7 whole entry): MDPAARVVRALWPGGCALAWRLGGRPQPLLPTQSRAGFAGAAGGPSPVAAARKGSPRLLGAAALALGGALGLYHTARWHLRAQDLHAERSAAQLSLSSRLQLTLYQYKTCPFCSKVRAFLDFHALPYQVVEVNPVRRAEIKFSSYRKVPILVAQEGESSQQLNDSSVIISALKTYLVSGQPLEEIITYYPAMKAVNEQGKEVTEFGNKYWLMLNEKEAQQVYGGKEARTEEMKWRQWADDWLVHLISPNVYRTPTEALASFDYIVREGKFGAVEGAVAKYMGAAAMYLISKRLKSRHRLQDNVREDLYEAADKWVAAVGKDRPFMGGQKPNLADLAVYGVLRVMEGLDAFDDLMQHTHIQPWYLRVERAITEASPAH
T1 sequence (P31153 whole entry): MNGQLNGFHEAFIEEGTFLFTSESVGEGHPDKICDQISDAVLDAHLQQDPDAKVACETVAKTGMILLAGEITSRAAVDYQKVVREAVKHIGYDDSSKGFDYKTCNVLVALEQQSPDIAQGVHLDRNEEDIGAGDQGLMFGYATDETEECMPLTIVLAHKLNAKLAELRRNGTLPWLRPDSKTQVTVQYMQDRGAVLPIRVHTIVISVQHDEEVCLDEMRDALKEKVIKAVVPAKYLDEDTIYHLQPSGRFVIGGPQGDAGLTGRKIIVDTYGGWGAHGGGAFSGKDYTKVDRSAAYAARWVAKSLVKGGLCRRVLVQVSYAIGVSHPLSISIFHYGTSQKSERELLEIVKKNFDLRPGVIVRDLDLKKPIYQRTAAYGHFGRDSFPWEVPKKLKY
Sequence of LARS1 (Q9P2J5 whole entry, species assumed, the tested form may be a part): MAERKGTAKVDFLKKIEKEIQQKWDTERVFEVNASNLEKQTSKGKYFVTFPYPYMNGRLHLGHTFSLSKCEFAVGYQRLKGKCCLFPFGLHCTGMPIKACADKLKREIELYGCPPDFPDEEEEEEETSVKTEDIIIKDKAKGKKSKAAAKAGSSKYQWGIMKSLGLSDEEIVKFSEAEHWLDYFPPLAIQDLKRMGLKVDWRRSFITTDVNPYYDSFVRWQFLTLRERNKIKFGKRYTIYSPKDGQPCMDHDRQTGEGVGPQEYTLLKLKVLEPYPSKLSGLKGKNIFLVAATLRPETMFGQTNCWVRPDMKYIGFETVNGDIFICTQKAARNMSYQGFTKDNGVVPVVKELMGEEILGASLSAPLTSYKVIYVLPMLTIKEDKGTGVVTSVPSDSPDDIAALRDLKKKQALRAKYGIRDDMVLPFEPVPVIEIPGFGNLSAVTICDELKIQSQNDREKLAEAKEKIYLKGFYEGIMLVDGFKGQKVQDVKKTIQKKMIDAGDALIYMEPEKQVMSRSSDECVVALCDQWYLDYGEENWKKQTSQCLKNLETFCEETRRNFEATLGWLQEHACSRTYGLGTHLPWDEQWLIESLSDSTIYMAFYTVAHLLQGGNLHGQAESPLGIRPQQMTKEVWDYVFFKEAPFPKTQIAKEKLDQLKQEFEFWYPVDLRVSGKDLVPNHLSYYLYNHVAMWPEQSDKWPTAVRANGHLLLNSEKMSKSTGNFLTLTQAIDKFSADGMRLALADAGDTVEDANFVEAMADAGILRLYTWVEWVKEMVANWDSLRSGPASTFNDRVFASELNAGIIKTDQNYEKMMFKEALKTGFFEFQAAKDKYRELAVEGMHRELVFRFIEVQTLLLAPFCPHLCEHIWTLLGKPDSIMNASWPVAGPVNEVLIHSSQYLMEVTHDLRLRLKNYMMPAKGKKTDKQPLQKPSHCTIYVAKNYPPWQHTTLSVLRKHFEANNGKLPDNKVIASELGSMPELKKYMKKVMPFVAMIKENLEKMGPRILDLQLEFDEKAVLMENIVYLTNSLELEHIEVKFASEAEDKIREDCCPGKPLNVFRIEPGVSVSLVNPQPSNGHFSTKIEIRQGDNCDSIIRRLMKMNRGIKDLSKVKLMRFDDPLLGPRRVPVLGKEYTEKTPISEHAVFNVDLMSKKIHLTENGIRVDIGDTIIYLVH

Compound: alpha-ketoglutarate [αKG]
- previously known αKG-binding proteins among LiP-MS targets [1]: 2
- target proteins identified by LiP-MS [1]: 34

Compound: [Cl-].[Cl-].[Zn+2] [Zn2+, zinc chloride]
- Zn2+-binding proteins containing zinc finger motifs [2]: 60
- stability of 26S proteasome regulatory subunits PSMC1-6 [2]: destabilization in the components of the 26S proteasome regulatory subunits
- stabilized Zn2+-binding proteins [2]: 112
- stabilized known Ca2+-binding proteins [2]: 25
- stabilized known Fe2+-binding proteins [2]: 15
- stabilized known Mg2+-binding proteins [2]: 20
- stabilized known Mn2+-binding proteins [2]: 9
- stabilized known binding proteins of other metal ions [2]: 6
- stabilized proteins that are known binding proteins of other metal ions [2]: 73
- stabilized proteins that are known metal ion-binding proteins [2]: 185
- number of proteins stabilized by Zn2+ ([2]; −log 10Pvalue>3 and log 2FC<−0.5): 280
- proportion of known metal ion-binding proteins among stabilized proteins ([2]; 19% in entire identified proteome): more than 66%
- stability of proteins containing IQ motifs [3]: destabilization in several proteins containing IQ motifs

- thermal melting temperature of MAT2A [5]: significantly increased
- thermal melting temperature / stabilization of AKR1C2 [6]: significantly increased
Compound: CC(C)c1cc(-c2n[nH]c(=O)n2-c2ccc3c(ccn3C)c2)c(O)cc1O [ganetespib]
- off-target proteins MAT2A and AKR1C2 [4]: two previously-unreported off-target proteins of ganetespib, namely MAT2A and AKR1C2

- number of SHP099-responsive PTPN11 peptides, PELSA relative to LiP-MS ([7]; 10 μM SHP099, HeLa cell lysate): 5.25 times
- response magnitude of PTPN11 peptides to SHP099, PELSA relative to LiP-MS ([7]; 10 μM SHP099, HeLa cell lysate): 6.4 times
Compound: SHP099
- fold change of PTPN11 peptide at the SHP099-binding site ([7]; 10 μM SHP099): exhibited fold changes exclusively in PELSA experiments

Compound: CS(=O)(=O)CCNCc1ccc(-c2ccc3ncnc(Nc4ccc(OCc5cccc(F)c5)c(Cl)c4)c3c2)o1 [lapatinib]
- location of significantly altered ERBB2 peptides ([8]; 100 nM lapatinib, |log 2(fold change)|>0.3 & −log 10(P value)>2): only within or in close proximity to the kinase domain
- resistance to proteolysis of peptides within the kinase domain of ERBB2 ([8]; lapatinib 100 μM, 10 μM and 1 μM): more resistant to proteolysis
- energy state changes of other kinases [9]: energy state changes in several other kinases such as CHEK2, SLK, RIPK2, and YES1
- affinity of lapatinib to ERBB2 [10]: approximately 9 nM
- energy state change of PTGES2 [11]: exhibited changes in its energy state
- lapatinib concentration at which maximum PTGES2 protection was reached ([12]; Western blotting): 50 µM
- PTGES2 protected from digestion (Western blot band intensity) ([12]; lapatinib 0.001-100 μM, trypsin 1:40, 37° C. 1 minute): increasing amount of PTGES2 protein protected from digestion

Compound: CN[C@@H]1C[C@H]2O[C@@](C)([C@@H]1OC)n1c3ccccc3c3c4c(c5c6ccccc6n2c5c31)C(=O)NC4 [staurosporine]
- total number of target proteins identified [13]: 143
- total number of target proteins identified [14]: 135
- proportion of kinases among all target proteins ([15]; K562 and HeLa): 80%
- total staurosporine target proteins in the two cell lines ([15]; K562 and HeLa): 192
- significantly changed peptides located within or within 10 residues of kinase domains ([15]; both K562 and HeLa lysates): over 92%
- number of kinase targets identified by LiP-Quant [16]: 9
- number of kinase targets identified by TPP [17]: 53
- total number of target proteins identified by TPP [17]: 60

Compound: CC(C)C[C@H](N)C(=O)O [leucine]
- energy state changes of LARS1, LARS2, GLUD1, SENS2 [18]: significant changes in the energy states
- energy state change of SLC1A5 [19]: significant changes in the energy state of SLC1A5
- stabilization of PPIP5K1 and PPIP5K2 [20]: stabilized PPIP5K1 and PPIP5K2
- Kd [21]: 95 µM

Compound: Phosphorylated tyrosine-glutamate-glutamate-isoleucine [pYEEI]
- SH2 domain proteins determined as pYEEI-binding proteins in pulldown [22]: none of the proteins containing the SH2 domain was determined as pYEEI-binding proteins
